We go through one compound from patent US20260176232A1, “PROBENECID COMPOUNDS FOR THE TREATMENT OF INFLAMMASOME-MEDIATED DERMATOLOGICAL CONDITIONS” (Bacainn Biotherapeutics, Ltd., priority 2022, published 2026).

In the experiment the target is T1, recombinant full length NLRP1 (Homo sapiens, UniProt Q9C000).
T1 sequence (Q9C000 1-1473): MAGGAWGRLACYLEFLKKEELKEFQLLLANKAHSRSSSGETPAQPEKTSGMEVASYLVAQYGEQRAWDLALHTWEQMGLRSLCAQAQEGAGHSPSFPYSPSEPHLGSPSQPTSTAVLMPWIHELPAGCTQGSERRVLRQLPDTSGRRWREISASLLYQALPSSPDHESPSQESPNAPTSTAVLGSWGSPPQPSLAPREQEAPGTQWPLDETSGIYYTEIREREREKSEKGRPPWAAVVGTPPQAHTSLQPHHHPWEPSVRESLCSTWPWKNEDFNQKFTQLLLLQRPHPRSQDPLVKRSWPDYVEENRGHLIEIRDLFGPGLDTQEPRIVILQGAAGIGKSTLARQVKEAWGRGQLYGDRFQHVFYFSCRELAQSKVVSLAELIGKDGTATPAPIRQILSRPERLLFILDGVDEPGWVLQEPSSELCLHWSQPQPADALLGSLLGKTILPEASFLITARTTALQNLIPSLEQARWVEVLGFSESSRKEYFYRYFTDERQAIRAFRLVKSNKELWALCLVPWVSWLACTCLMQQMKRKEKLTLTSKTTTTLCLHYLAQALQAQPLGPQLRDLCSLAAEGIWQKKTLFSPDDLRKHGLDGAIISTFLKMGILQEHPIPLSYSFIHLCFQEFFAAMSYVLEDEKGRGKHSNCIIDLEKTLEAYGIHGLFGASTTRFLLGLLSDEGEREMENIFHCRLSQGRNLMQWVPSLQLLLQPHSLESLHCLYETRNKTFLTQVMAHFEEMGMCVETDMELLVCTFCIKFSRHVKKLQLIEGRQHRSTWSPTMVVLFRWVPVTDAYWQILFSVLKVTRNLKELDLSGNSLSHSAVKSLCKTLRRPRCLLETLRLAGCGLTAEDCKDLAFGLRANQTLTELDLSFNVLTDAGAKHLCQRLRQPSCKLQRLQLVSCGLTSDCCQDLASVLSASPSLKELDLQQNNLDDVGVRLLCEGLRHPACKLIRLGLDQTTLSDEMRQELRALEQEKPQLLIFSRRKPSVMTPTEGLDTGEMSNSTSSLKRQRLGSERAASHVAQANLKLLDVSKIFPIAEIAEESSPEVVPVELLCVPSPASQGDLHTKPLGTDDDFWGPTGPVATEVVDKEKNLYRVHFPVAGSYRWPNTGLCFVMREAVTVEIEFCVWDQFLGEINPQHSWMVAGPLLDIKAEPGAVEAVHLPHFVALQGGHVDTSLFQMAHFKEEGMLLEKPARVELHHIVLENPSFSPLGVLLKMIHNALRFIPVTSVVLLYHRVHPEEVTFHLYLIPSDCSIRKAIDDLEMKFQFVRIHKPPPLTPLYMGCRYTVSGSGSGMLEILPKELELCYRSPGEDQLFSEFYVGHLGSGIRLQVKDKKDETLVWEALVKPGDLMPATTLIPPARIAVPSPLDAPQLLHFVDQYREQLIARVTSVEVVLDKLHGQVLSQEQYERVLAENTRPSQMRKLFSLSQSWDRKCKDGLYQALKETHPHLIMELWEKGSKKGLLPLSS
As to the kind of experiment: Photo-affinity labelling of recombinant full length NLRP1, anti-PEG immunoblot (FIG. 9E). It counts as binding. The conditions noted are these: inferred from photo-affinity probes ADS165, ADS167. The method, then:
FIGS. 9A-9F are a series of panels showing ADS032 (also referred to herein as “BT032”) directly binds to NLRP1 and NLRP3. FIGS. 9A and 9B are chemical structures of ADS165 and ADS167. […] ADS165 was then co-incubated for 20 mins and UV treated for 20 mins to cross-link associated compound and protein. Protein was separated by SDS-PAGE and immunoblotted (IB) with anti-PEG to visualize ADS165-linked protein. FIG. 9D: iBMDM cells stably expressing NLRP3-Flag were treated for 30 mins with ADS165, ADS167 (1 mM) or MCC955 (50 μM) for 30 mins, and irradiated with UV 365 nm for 30 mins. Cells were lysed with buffer and immunoprecipitation (IP) of NLRP3 performed with α-NLRP3 (D4D8T) antibody. Levels of precipitated (IP) and total cellular lysate (Input) NLRP3 were determined by immunoblotting with α-NLRP3 (Cryo-2) antibody. FIG. 9F: NLRP1-Flag was expressed in HEK293T cells (1×10^6) for 20 h and treated with ADS165 (1 mM) for 30 mins where indicated, followed by UV 365 nm for a further 30 mins. Cells were lysed with lysis buffer and […] immunoprecipitated with α-Flag (M2) antibody. Proteins were separated by SDS-PAGE and ADS165-linked NLRP1 identified by immunoblot with a-PEG, while total precipitated NLRP1 visualized by immunoblot with α-NLRP1 and total cell lysate by α-Flag. Data shown is representative of three independent experiments.
Next, it was determined whether ADSO32 could interact with NLRP1. […] To further investigate this interaction, ectopically expressed Flag-tagged NLRP1 was immunoprecipitated from cell lysates pretreated or not with ADS165 and exposed to UV light.

The structures appear in SMILES notation.

For the compound `CCCN(CCC)S(=O)(=O)c1ccc(-c2ccc(CCCC(=O)O)cc2)cc1` [BT032, 4-(4′-(N,N-dipropylsulfamoyl)-[1,1′-biphenyl]-4-yl)butanoic acid], the “direct interaction with NLRP1” value was “directly interacts proximal to the Walker B motif within the NACHT domain”.
